The text below walks through data of PMC6074028 (Organic & biomolecular chemistry, 2009).

Read-outs that look alike come from different tables or passages of the source.

In test [1] the target is T1, BaPanK (type-III pantothenate kinase from Bacillus anthracis) (Bacillus anthracis, UniProt Q81VX4). It is filed as biochemical.
Test [2] addresses T1, BaPanK (type-III pantothenate kinase from Bacillus anthracis). The test is classed as biochemical. This is another data set of the same source.

T1 sequence (Q81VX4 whole entry, looked up): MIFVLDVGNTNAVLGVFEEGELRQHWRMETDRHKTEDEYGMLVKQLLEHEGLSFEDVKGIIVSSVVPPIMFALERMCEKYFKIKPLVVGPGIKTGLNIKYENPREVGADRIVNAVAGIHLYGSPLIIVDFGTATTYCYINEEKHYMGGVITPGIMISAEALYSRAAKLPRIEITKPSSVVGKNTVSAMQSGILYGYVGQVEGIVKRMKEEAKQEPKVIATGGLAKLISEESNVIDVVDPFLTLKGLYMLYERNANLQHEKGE

With `Nc1ncnc2c1ncn2[C@@H]1O[C@H](COP(=O)(O)OP(=O)(O)OP(=O)(O)O)[C@@H](O)[C@H]1O` [ATP], in test [1], the Michaelis-Menten constant (Km) (commonly the substrate concentration at which the rate is half of its maximum) stood at 510 µM.

For the molecule `Nc1ncnc2c1ncn2[C@H]1C[C@H](O)[C@@H](COP(=O)(O)OP(=O)(O)OP(=O)(O)O)O1` [dATP], in test [1], the Km was 138 µM.

For `Nc1nc2c(ncn2[C@H]2C[C@H](O)[C@@H](COP(=O)(O)OP(=O)(O)OP(=O)(O)O)O2)c(=O)[nH]1` [dGTP], in test [1], the Km amounted to 117 µM.

As to `Cc1cn([C@H]2C[C@H](O)[C@@H](COP(=O)(O)OP(=O)(O)OP(=O)(O)O)O2)c(=O)[nH]c1=O` [dTTP], in test [1], the Km amounted to 723 µM.

Take `CC(C)(CO)[C@@H](O)C(=O)NCCC(=O)O` [pantothenate]: in test [2], the Km is 275 µM.
